Assays:
Type in all cases: in vivo
[1] = test system: NMDA-induced convulsions; experiment: Neuroprotective/anticonvulsant activity against NMDA-induced convulsions and mortality in mice; details: for CD50 (95% confidence interval): icv, NMDA 1 nmole/mouse; for CD50 (95% confidence interval) / time course of protecting effects: mice; for neuroprotectant activity, dose dependence: NMDA challenge in mice, FIGS. 1-3; for time course of protecting effects: i.c.v. preadministration at various doses, NMDA challenge
Protocol: The term CD50 as shown in Table 1 is defined as the dose of drug which induces a 50% reduction in the number of deaths caused by NMDA administration.
For purposes of comparison, the compounds of the present invention and reference standards were administered to mice and the time course of neuroprotectant activity was determined subsequent to challenge by NMDA. Compounds were administered i.c.v. or i.p. at different times and concentrations prior to injection of NMDA (1 nmol/mouse, I.C.V.). The mortality rate (CD50) TABLE I and the response curves.
In FIG. 1, dextrorphan was i.c.v. preadministered at a concentration of 1.0 (closed circle); 5.0 (open square); and 10 (closed square) nmole/mouse. The open circle represents preadministration of saline at a concentration of 10 μl/mouse.
A does dependent time course profile of the neuroprotectant activity against NMDA induced convulsions of compound #9 in mice is illustrated in FIG. 3. […] In both FIGS. 2 and 3, the respective compound was preadministered at (open circle); 50 (closed circle); and 100 (closed square) nmole/mouse.
Comparison of anticonvulsant activity of compounds of the
present invention and dextrorphan against NMDA-induced
convulsions in mice (at 1 nmole/mouse)

[2] = Locomotion and falling behaviour; details: I.C.V., mice, observed 15 to 30 minutes
Protocol: Mice were place individually in observation cages for a 60 minute habituation period. They were injected I.C.V. with test compounds and observed for 15 to 30 minutes. Locomotion and falling behavior were assessed according to the procedure of Koek and Colpaert (J. Pharm. Exp. Therm. 252 349-357, 1990). For each animal, the presence of locomotor activity and falling behaviour was recorded. Statistical significance of drug-induced changes in the occurrence of a particular behaviour was tested by means of the method of Fray et al. (Psycopharmacol 69 253-259, 1980). MK-801, known to have intrinsic neurotoxicity, induced falling behaviour at doses as low as 1.5 nmol/mouse.

[3] = Motor coordination by rotarod; details: 8 rpm, Compound #13 compared to dextrorphan
Protocol: Motor effects illicited by various antagonists were assessed using a rotarod treadmill (model 7600, UGO Basile, Italy). The method used was similar to the procedure described by Dunhamand Miya (J. Am. Pharmac. Assoc. 46 208-209-1957). The apparatus consisted of a rod of 2.5 cm diameter which was suspended horizontally 50 cm above a working area. The rod was turned at a speed of 8 rpm. Circular perplex separators were placed at intervals along the rod so that five animals could be tested simultaneously. All animals were conditioned to the rod for two consecutive days prior to experimentation.
The results of a study in which comparative motor impairment caused by Compound #13 was compared to dextrorphan, as assessed by rotarod.

| SMILES | CD50 (95% confidence interval) [1] | neuroprotectant activity, dose dependence [1] | time course of protecting effects [1] | also measured |
| --- | --- | --- | --- | --- |
| CC12CCCCSC(Cc3ccc(O)cc31)C2NC(=N)N (stereo not drawn) [Compound #11, trans-5,6,7,8,9,11,12-heptahydro-10-thia-3-hydroxy-5-methyl-5,11-methanobenzocyclodecen-13-guanidine] | 0.16 (0.11-0.25) nmo1/mouse |  |  | potency relative to Dextrorphan ([1]; NMDA-induced convulsions in mice): approximately 3 fold; anticonvulsive activity ([1]; NMDA-induced convulsions in mice, in words): greatest activity |
| CC12CCCCSC(Cc3ccc(O)cc31)C2N (single isomer, unassigned; (-)) [Compound #9a, (-)-trans-5,6,7,8,9,11,12-heptahydro-10-thia-3-hydroxy-5-methyl-5,11-methanobenzocyclodecen-13-amine] | 2.90 (1.75-4.85) nmo1/mouse |  |  |  |
| C[C@]12N[C@H](Cc3ccccc31)c1ccccc12 [MK-801] |  |  |  | dose inducing falling behaviour (as low as) [2]: 1.5 nmol/mouse |
| CC12CCCCSC(Cc3ccc(O)cc31)C2N (single isomer, unassigned; (+)) [Compound #9b, (+)-trans-5,6,7,8,9,11,12-heptahydro-10-thia-3-hydroxy-5-methyl-5,11-methanobenzocyclodecen-13amine] | 1.58 (0.95-2.62) nmo1/mouse |  |  |  |
| CN1CC[C@@]23CCCC[C@@H]2[C@@H]1Cc1ccc(O)cc13 [Dextrorphan, dextrorphan, reference compound] | 0.55 (0.39-0.78) nmo1/mouse | dose dependent neuroprotectant activity effect | time-dependent decreases in the protecting effects | percentage of animals showing motor effects [3]: higher for animals treated with dextrorphan than for animals treated with Compound #13 |
| CC12CCCCSC(Cc3ccc(O)cc31)C2NO (stereo not drawn) [Compound #10, 5,6,7,8,9,11,12-heptahydro-3-hydroxy-5-methyl-10-thia-5,11-methanobenzocyclodecene-13-β-hydroxylamine] | 1.79 (0.99-3.25) nmo1/mouse |  |  |  |
| CC12CCCCSC(Cc3ccc(O)cc31)C2N (stereo not shown) [Compound #9, 5,6,7,8,9,11,12-heptahydro-3-hydroxy-5-methyl-10-thia-5,11-methanobenzocyclodecen-13-amine] | 0.95 (0.62-1.45) nmo1/mouse | dose dependent neuroprotectant activity effect | time-dependent decreases in the protective effects |  |
| COc1ccc2c(c1)C1(C)CCCCSC(C2)C1N (stereo not shown) [Compound #8b, 5,6,7,8,9,11,12-heptahydro-3-methoxy-5-methyl-10-thia-5,11-methanobenzocyclodecen-13-amine] | 7.64 (4.8-12.0) nmo1/mouse |  |  |  |
| CC12CCCCCC(Cc3ccc(O)cc31)C2N (stereo not shown) [Compound #13, 5,6,7,8,9,11,12-heptahydro-3-hydroxy-5-methyl-5, 11-methanobenzocyclodecene-13-amine, reference compound] | 28.7 (15.3-53.8) nmo1/mouse | dose dependent neuroprotectant activity effect | time-dependent decreases in the protecting effects | percentage of animals showing motor effects [3]: higher for animals treated with dextrorphan than for animals treated with Compound #13 |
